The values that follow come from ChEMBL document CHEMBL1201862, “PubChem BioAssay data set” (2004).

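Where inhibition never reached the appropriate level, the endpoint shown equals the highest concentration tested. Otherwise, values were interpolated linearly from a five-concentration, 48-hour dose response in 96-well plates. At the GI50, growth is halved.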 The source made the active and inactive calls. Cut-off read from the data, not from the text of the source: active = GI50 up to about 1.1 µM and inactive = higher.

Test systems include 786-0; A498; CAKI-1; CCRF-CEM; HCT-15; HOP-92; HT-29; K562; KM12; LOX IMVI; M14; MOLT-4; NCI-H23; RXF 393; SN12C; SR; TK-10; UO-31; SF-539.
Common to all, as to assay: inhibition of tumour cell growth, NCI panel, 48 h

For the molecule `NC1c2ccccc2Nc2ccccc21`, the GI50 with 786-0 is 3.84 µM (inactive); in the test on A498 it was 8.34 µM (inactive); with CAKI-1 it was 3.63 µM (inactive); in the test on CCRF-CEM it was 5.2 µM (inactive); with HCT-15, 3.31 µM; in the test with HOP-92, 3.27 µM (inactive). Also, the GI50 with HT-29 was 4.08 µM (inactive); in the test on K562, 3.54 µM (inactive); with KM12, 4.22 µM (inactive); in the test with LOX IMVI it was 3.53 µM (inactive); in the test on M14, 3.92 µM (inactive); in the test with MOLT-4, 2.94 µM (inactive). For the same molecule, the GI50 with NCI-H23 was 4.74 µM (inactive); in the test on RXF 393 it was 6.24 µM (inactive); with SN12C it was 4.53 µM (inactive); in the test on SR it was 2.64 µM (inactive); in the test on TK-10 it was 5.82 µM (inactive); in the test on UO-31, 3.27 µM (inactive).

As to `CCCc1c(C(=O)OCC)[nH]c(-c2ccc(-c3[nH]c(C(=O)OCC)c(CCC)c3C(=O)OCC)s2)c1C(=O)OCC`, the GI50 in the test on 786-0 was 21.8 µM (inactive); in the test with A498, 43.9 µM (inactive); in the test on CAKI-1, 39.7 µM (inactive); in the test on CCRF-CEM, > 100 µM (inactive); with HCT-15 it was 92.5 µM; in the test on HOP-92, 25.2 µM (inactive). For the same molecule, the GI50 is 38.8 µM (inactive) with HT-29; 79.4 µM (inactive) with K562; 22.1 µM (inactive) with KM12; 18.1 µM (inactive) in the test with LOX IMVI; 49.8 µM (inactive) in the test on M14; 65 µM (inactive) in the test with MOLT-4. Also, the GI50 in the test with NCI-H23 is 28.2 µM (inactive); with RXF 393, 5.38 µM (inactive); in the test on SF-539 it was 41 µM (inactive); in the test on SN12C it was > 100 µM (inactive); in the test with SR, 7.26 µM (inactive); in the test on TK-10, 50.1 µM (inactive). The GI50 in the test on UO-31 is 8.97 µM (inactive).

Consider `O=C(/C=C\c1cccc2ccccc12)c1cccc2ccccc12`, for which the GI50 in the test with 786-0 is 4.4 µM (inactive); in the test with A498, 17.2 µM (inactive); in the test with CAKI-1, 8.07 µM (inactive); in the test with CCRF-CEM, 3.3 µM (inactive); with HCT-15, 4.03 µM; in the test with HOP-92, > 10 µM (inactive). For the same molecule, the GI50 in the test with HT-29 is 5.25 µM (inactive); in the test on K562, 4.92 µM (inactive); in the test with KM12, 6.55 µM (inactive); with LOX IMVI, 5.61 µM (inactive); in the test on M14, 12.2 µM (inactive); in the test with MOLT-4, 2.82 µM (inactive). The GI50 with NCI-H23 is 5.93 µM (inactive); with RXF 393, 5 µM (inactive); in the test on SF-539, 14.3 µM (inactive); in the test with SN12C, 15.5 µM (inactive); with SR, 3.25 µM (inactive); in the test with TK-10, > 10 µM (inactive). In the test with UO-31, the GI50 was 14.3 µM (inactive).

Consider `O=C1C2=C(C(c3ccccc3)=C1c1ccccc1)c1ccccc1C1(c3ccccc3)C2=C(O)C(c2ccccc2)=C1c1ccccc1` (stereo not drawn), for which the GI50 is > 100 µM (inactive) in the test on 786-0; > 100 µM (inactive) in the test on A498; > 100 µM (inactive) in the test on CAKI-1; above 100 µM with HCT-15; > 100 µM (inactive) with HOP-92; > 100 µM (inactive) in the test on HT-29. For the same molecule, the GI50 in the test with KM12, in the test on LOX IMVI, in the test with M14, in the test with MOLT-4, in the test on NCI-H23 and in the test on RXF 393 was > 100 µM (inactive) in each case. The GI50 in the test with SF-539, with SN12C, in the test on SR, in the test with TK-10 and in the test on UO-31 was > 100 µM (inactive) throughout.

With `O=P(Oc1ccc2ccccc2c1)(N1CC1)N1CC1`, the GI50 with 786-0 is 4.84 µM (inactive); with A498, 20.3 µM (inactive); with CCRF-CEM it was 44.9 µM (inactive); in the test with HCT-15 it was above 100 µM; in the test on HOP-92, 24.5 µM (inactive); in the test with HT-29, > 100 µM (inactive). Also, the GI50 in the test on K562 was 37.2 µM (inactive); with KM12, > 100 µM (inactive); in the test with LOX IMVI it was 28.8 µM (inactive); in the test on M14 it was 11.4 µM (inactive); with MOLT-4, 53.2 µM (inactive); in the test on NCI-H23, 4.43 µM (inactive). Besides, the GI50 was 14.3 µM (inactive) in the test on RXF 393; 17.6 µM (inactive) in the test with SF-539; 23.5 µM (inactive) in the test with SN12C; 3.13 µM (inactive) with SR; 67.9 µM (inactive) in the test with TK-10; 10.7 µM (inactive) in the test with UO-31.

With `COC(=O)C1=C(C(=O)OC)C23CC4CCC2(C(=O)C1O3)C4(C)C` (stereo not drawn), the GI50 in the test with 786-0 was > 100 µM (inactive); with A498 it was > 100 µM (inactive); with CAKI-1, > 100 µM (inactive); with CCRF-CEM, 22.1 µM (inactive); with HCT-15 it was above 100 µM; in the test on HOP-92 it was 48.5 µM (inactive). Also, the GI50 was > 100 µM (inactive) in the test with HT-29; 56.2 µM (inactive) with K562; > 100 µM (inactive) in the test on KM12; 84.5 µM (inactive) with LOX IMVI; > 100 µM (inactive) with M14; 30.4 µM (inactive) in the test on MOLT-4. Moreover, the GI50 was > 100 µM (inactive) in the test on NCI-H23; 58.5 µM (inactive) with RXF 393; > 100 µM (inactive) with SF-539; > 100 µM (inactive) with SN12C; 26.7 µM (inactive) in the test with SR; > 100 µM (inactive) in the test with TK-10. Moreover, the GI50 in the test on UO-31 was > 100 µM (inactive).

Turning to `O=C(COC(=O)c1cccc2c(=O)c3ccccc3[nH]c12)Nc1ccc(C(=O)O)cc1`, the GI50 was > 100 µM (inactive) with 786-0; > 100 µM (inactive) in the test with A498; > 100 µM (inactive) in the test with CAKI-1; 69.5 µM (inactive) with CCRF-CEM; > 100 µM (inactive) in the test on HOP-92; > 100 µM (inactive) with HT-29. Besides, the GI50 with K562 is 70.6 µM (inactive); in the test with KM12 it was 47.2 µM (inactive); in the test on LOX IMVI, > 10 µM (inactive); in the test on M14, > 100 µM (inactive); in the test on MOLT-4, 37.8 µM (inactive); in the test with NCI-H23, > 100 µM (inactive). The GI50 with RXF 393 was 46.8 µM (inactive); in the test with SF-539 it was > 100 µM (inactive); with SN12C, > 100 µM (inactive); in the test on SR, 30.8 µM (inactive); with TK-10, > 10 µM (inactive); with UO-31 it was 71.3 µM (inactive).

`COC1=C(OC)C(=O)c2cc(SC)c(=O)c(SC)cc2C1=O`: the GI50 in the test with 786-0 was 17.3 µM (inactive); in the test on A498 it was 24.5 µM (inactive); in the test with CAKI-1, 72.4 µM (inactive); in the test on CCRF-CEM, 2.34 µM (inactive); in the test on HCT-15 it was 25.1 µM; with HOP-92, 17.7 µM (inactive). For the same molecule, the GI50 in the test with HT-29 was > 100 µM (inactive); in the test on K562, 15.9 µM (inactive); with KM12, 96.4 µM (inactive); in the test on LOX IMVI, 4.48 µM (inactive); with M14, 17.2 µM (inactive); in the test on MOLT-4, 3.79 µM (inactive). For the same molecule, the GI50 is 5.75 µM (inactive) with NCI-H23; 4.9 µM (inactive) in the test with RXF 393; 12.1 µM (inactive) in the test with SF-539; 14.7 µM (inactive) in the test on SN12C; 4.33 µM (inactive) with SR; 59 µM (inactive) with TK-10. Besides, the GI50 with UO-31 was 19.8 µM (inactive).

On to `CCOC(OCC)C(CC)[Se]c1ccccc1[N+](=O)[O-]` (stereo not drawn), for which the GI50 in the test with 786-0 was 3.41 µM (inactive); in the test on A498, 2.17 µM (inactive); in the test with CAKI-1 it was 2.75 µM (inactive); with CCRF-CEM it was 2 µM (inactive); with HCT-15, 1.57 µM; with HOP-92, > 22.2 µM (inactive). In addition, the GI50 was 2.39 µM (inactive) with HT-29; 1.93 µM (inactive) in the test with K562; 3.06 µM (inactive) in the test with KM12; 5.33 µM (inactive) in the test on LOX IMVI; 1.63 µM (inactive) in the test on M14; 2.9 µM (inactive) with MOLT-4. Further, the GI50 was 3.03 µM (inactive) with NCI-H23; 1.8 µM (inactive) with RXF 393; 2.02 µM (inactive) in the test on SF-539; 7.94 µM (inactive) in the test on SN12C; 0.593 µM (active) with SR; 8.09 µM (inactive) with TK-10. Besides, the GI50 in the test on UO-31 was 7.43 µM (inactive).

For the molecule `Cc1ccc(S(=O)(=O)N/N=C/c2oc(-c3cccc([N+](=O)[O-])c3)c(-c3cccc([N+](=O)[O-])c3)c2[N+](=O)[O-])cc1`, the GI50 with 786-0 is 60.7 µM (inactive); with A498, > 100 µM (inactive); with CAKI-1 it was > 100 µM (inactive); in the test on CCRF-CEM it was 19.5 µM (inactive); in the test on HCT-15 it was 62.2 µM; with HOP-92, 31.9 µM (inactive). In addition, the GI50 is > 100 µM (inactive) with HT-29; 24.9 µM (inactive) in the test on K562; 36 µM (inactive) with KM12; 16.7 µM (inactive) with LOX IMVI; 51.2 µM (inactive) in the test with M14; 25.8 µM (inactive) with MOLT-4. In addition, the GI50 is 42.4 µM (inactive) in the test with NCI-H23; 27 µM (inactive) in the test with RXF 393; > 100 µM (inactive) with SF-539; 61.4 µM (inactive) in the test with SN12C; 17.6 µM (inactive) in the test on SR; > 100 µM (inactive) in the test with TK-10. In the test with UO-31, the GI50 is 16.3 µM (inactive).

`O=c1cc2n(c(=O)[nH]1)C1OC(C(O)C1O)[C@@H]2CCO` (stereo partly drawn): the GI50 in the test on 786-0, with A498, with CAKI-1, with CCRF-CEM, in the test with HOP-92 and in the test with HT-29 was > 100 µM (inactive) each time. The GI50 in the test on K562, in the test on KM12, in the test with LOX IMVI, in the test with M14, in the test with MOLT-4 and in the test on NCI-H23 was > 100 µM (inactive) in each case. In addition, the GI50 in the test on RXF 393, in the test on SF-539, with SN12C, with SR, in the test with TK-10 and with UO-31 was > 100 µM (inactive) in each case.
